Measurements: patent US20240368125A1, “NOVEL PYRAZINYL-TRIAZOLE COMPOUNDS AS PESTICIDES” (Bayer Aktiengesellschaft, priority 2021, published 2024)

Key:
Type in all cases: in vivo
[1] = test system: adult engorged female ticks (Rhipicephalus microplus); experiment: Rhipicephalus (Boophilus) microplus injection test; details: 4 μg/tick, after 7 days
Method: Rhipicephalus (Boophilus) Microplus—Injection Test
Solvent: Dimethyl Sulfoxide
To produce a suitable preparation of active compound, 10 mg of active compound are dissolved in 0.5 mL solvent, and the concentrate is diluted with solvent to the desired concentration.
Five adult engorged female ticks (Rhipicephalus microplus) are injected with 1 μL compound solution into the abdomen. The ticks are transferred into replica plates and incubated in a climate chamber.
After 7 days egg deposition of fertile eggs is monitored. Eggs where fertility is not visible are stored in a climate chamber till hatching after about 42 days. An efficacy of 100% means all eggs are infertile; 0% means all eggs are fertile.

[2] = test system: adult cat fleas (Ctenocephalides felis); experiment: Ctenocephalides felis in-vitro contact test, adult cat flea; details: Ctenocephalides felis; 1 μg/cm^2 (=100 g/ha), after 48 hours; read-out: efficacy (fleas dead or moribund)
[3] = test system: brown planthopper (Nilaparvata lugens); experiment: Nilaparvata lugens spray test; details: Nilaparvata lugens, in Oryza sativa, 96 h
Method in brief: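 Compound dissolved in acetone/dimethylformamide and diluted in water with 1000 ppm alkylarylpolyglycol ether emulsifier. Rice plants sprayed at the test concentration, then infested with brown planthopper; % mortality read after 4 days (100% = all killed, 0% = none).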

[4] = test system: adult mosquitoes Aedes aegypti strain MONHEIM; experiment: Aedes aegypti test (AEDSAE surface treatment & contact assay); details: 24 hours after contact, read-out: efficacy (mortality); for mortality at 4 mg/m2: surface concentration 4 mg/m^2, 30 min exposure; for mortality at 20 mg/m2: surface concentration 20 mg/m^2, 30 min exposure
Method: Aedes aegypti Test (AEDSAE Surface Treatment & Contact Assay
(§1) Solvent: Aceton+2000 ppm rapeseed oil methyl ester (RME)
(§2) In order to produce a sufficient, active ingredient containing solution it is necessary to solve the test compound in the solvent-mix (acetone at 2 mg/ml/RME 2000 ppm). This solution is pipetted onto a glazed tile and after evaporation of the acetone, adult mosquitoes of the species Aedes aegypti strain MONHEIM are placed onto the dried surface. The exposure time is 30 minutes. Mortality in percent (%) is determined 24 hours after contact of the insects to the treated surface. 100% mortality means that all tested insects are dead, whereas 0% means that no insect died.

[5] = test system: adult mosquitoes Anopheles funestus strain FUMOZ-R; experiment: Anopheles funestus test (ANPHFU surface treatment & contact assay); details: 24 hours after contact, read-out: efficacy (mortality); for mortality at 4 mg/m2: surface concentration 4 mg/m^2, 30 min exposure; for mortality at 20 mg/m2: surface concentration 20 mg/m^2, 30 min exposure
Method: Anopheles funestus Test (ANPHFU Surface Treatment & Contact Assay
as §1
as §2, with “Anopheles funestus” for “Aedes aegypti”, “FUMOZ-R (Hunt et al., Med. Vet. Entomol. 2005 September; 19(3): 271-275)” for “MONHEIM”

[6] = test system: adult flies Musca domestica strain WHO-N; experiment: Musca domestica test (MUSCDO surface treatment & contact assay); details: 24 hours after contact, read-out: efficacy (mortality); for mortality at 20 mg/m2: surface concentration 20 mg/m^2, 30 min exposure; for mortality at 4 mg/m2: surface concentration 4 mg/m^2, 30 min exposure
Method: Musca domestica Test (MUSCDO Surface Treatment & Contact Assay
as §1
as §2, with “flies” for “mosquitoes”, “Musca domestica” for “Aedes aegypti”, “WHO-N” for “MONHEIM”

[7] = test system: larvae of the southern green stink bug (Nezara viridula); experiment: Nezara viridula spray test; details: Nezara viridula, in Hordeum vulgare, 96 h
Method in brief: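 Barley plants sprayed with compound in acetone/DMF diluted in water with 1000 ppm alkylarylpolyglycol ether emulsifier, then infested with N. viridula larvae. Mortality (%) scored after 4 days; 100% means all bugs killed.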

| SMILES | efficacy (infertile eggs) [1] [%] | pest or weed control at 1 µg/cm2 [2] [%] | mortality at 500 g/ha [3] [%] | mortality at 4 mg/m2 [4] [%] | mortality at 20 mg/m2 [4] [%] | mortality at 4 mg/m2 [5] [%] | mortality at 20 mg/m2 [5] [%] | mortality at 20 mg/m2 [6] [%] | mortality at 500 g/ha [7] [%] | mortality at 4 mg/m2 [6] [%] |
| --- | --- | --- | --- | --- | --- | --- | --- | --- | --- | --- |
| C[C@H](NC(=O)c1cc(OC(F)(F)F)cc(C2CC2)c1)c1ncnn1-c1cnc(C(=O)N(C)C)cn1 [Example I-002] | 100 | 100 | 90 | 80 to 100 | 80 to 100 | 85 to 100 | 85 to 100 | 80 to 100 |  |  |
| C[C@H](NC(=O)c1cc(C(F)(F)F)cc(C(F)(F)F)c1)c1ncnn1-c1cnc(C(=O)N(C)CC2CC2)cn1 [Example I-008] | 100 | 100 | 100 | 80 to 100 | 80 to 100 |  |  | 80 to 100 | 100 | 80 to 100 |
| C[C@H](NC(=O)c1cc(C(F)(F)F)cc(C(F)(F)F)c1)c1ncnn1-c1cnc(C(=O)N(C)C2CC2)cn1 [Example I-007] | 100 | 100 | 100 | 80 to 100 | 80 to 100 |  |  | 80 to 100 |  | 80 to 100 |
| CNC(=O)c1cnc(-n2ncnc2[C@H](C)NC(=O)c2cc(C(F)(F)F)cc(C(F)(F)F)c2)cn1 [Example I-009] | 100 | 100 | 100 | 80 to 100 | 80 to 100 | 85 to 100 | 85 to 100 | 80 to 100 | 100 | 80 to 100 |
| CNC(=O)c1cnc(-n2ncnc2[C@H](C)NC(=O)c2cc(OC(F)(F)F)cc(C3CC3)c2)cn1 [Example I-021] |  | 100 | 100 | 80 to 100 | 80 to 100 |  |  | 80 to 100 | 100 | 80 to 100 |
